These are literature values, as cited in patent publication US10828268B2 (priority 2013, dated 2020).

The conditions of this series: human, taken orally.

On to `COc1cc(/C=C/C(=O)CC(=O)/C=C/c2ccc(O)c(OC)c2)ccc1O` [curcumin], for which the oral bioavailability entry is “poorly bioavailable”.
